Results from patent US20250382308A1, “COMPOUNDS ACTIVE TOWARDS BROMODOMAINS” (NUEVOLUTION A/S, priority 2022, published 2025).

Tests used:
[1] = target: first bromodomain of BRD4 (Homo sapiens (Human), UniProt O60885); assay: Bromoscan binding assay BRD4 (1); conditions: for Kd: Bromoscan, geometric mean where multiple measurements have been made; for Selectivity BRD4(2)/BRD4(1): ratio BRD4(2) Kd / BRD4(1) Kd
Procedure: (§1) Compounds were assayed for binding affinity using bromoscan assays and a phosphodiesterase three assay.
(§2) Bromoscan assays were run by DiscoveRx Corporation. The relevant assay names are BRD4 (1) for the first bromodomain of BRD4 and BRD4 (2) for the second bromodomain of BRD4. Further Bromoscan assays covering other bromodomains may be employed to establish the selectivity profile of a compound of interest. To run the Bromoscan assay, a T7 phage strain displaying the relevant bromodomain was grown in parallel in 24-well blocks in an E. coli host derived from the BL21 strain. E. coli were grown to log-phase and infected with T7 phage from a frozen stock (multiplicity of infection=0.4) and incubated with shaking at 32° C. until lysis (90-150 minutes). The lysates were centrifuged (5,000×g) and filtered (0.2 μm) to remove cell debris. […] The liganded beads were blocked with excess biotin and washed with blocking buffer (SeaBlock (Pierce), 1% BSA (bovine serum albumin), 0.05% Tween 20, 1 mM DTT (dithiothreitol)) to remove unbound ligand and to reduce non-specific phage binding. […] Test compounds were prepared as 1000× stocks in 100% DMSO and subsequently diluted 1:10 in monoethylene glycol (MEG) to create stocks at 100× the screening concentration (resulting stock solution is 10% DMSO/90% MEG). The compounds were then diluted directly into the assays such that the final concentration of DMSO and MEG were 0.1% and 0.9%, respectively. All reactions were performed in polystyrene 96-well plates in a final volume of 0.135 ml. […] The bromodomain concentration in the eluates was measured by qPCR (quantitative real-time polymerase chain reaction). Binding constants (Kds) were calculated with a standard dose-response curve using the Hill equation: Response=Blackground+((Signal-Background)/(1+Kd^Hill Slope/Dose^Hill Slope)). The Hill Slope was set to −1. Curves were fitted using a non-linear least square fit with the Levenberg-Marquardt algorithm.

[2] = target: second bromodomain of BRD4 (Homo sapiens (Human), UniProt O60885); assay: Bromoscan binding assay BRD4 (2); conditions: geometric mean where multiple measurements have been made
Procedure: as §1, §2

Row | SMILES | Kd [1] | Selectivity BRD4(2)/BRD4(1) [1] | Kd [2]
1 | COc1cc(NC(=O)c2cc3c(nc2N2C[C@H]4CCO[C@H]4C2)COC3)cc2c(C)cc(=O)[nH]c12 (racemic) [Example 22, N-(8-methoxy-4-methyl-2-oxo-1H-quinolin-6-yl)-2-[rac-(3aR,6aR)-2,3,3a,4,6,6a-hexahydrofuro[2,3-c]pyrrol-5-yl]-5,7-dihydrofuro[3,4-b]pyridine-3-carboxamide] | 170 nM | 22 | 3800 nM
2 | COc1cc(NC(=O)c2cc3c(nc2C2=CCCC2)COC3)cc2c(C)cc(=O)[nH]c12 [Example 3, 2-(cyclopenten-1-yl)-N-(8-methoxy-4-methyl-2-oxo-1H-quinolin-6-yl)-5,7-dihydrofuro[3,4-b]pyridine-3-carboxamide] | 13 nM | 62 | 800 nM
3 | COc1cc(NC(=O)c2cc3c(nc2N2CC4CC2(C)C4)COC3)cc2c(C)cc(=O)[nH]c12 [Example 4, N-(8-methoxy-4-methyl-2-oxo-1H-quinolin-6-yl)-2-(1-methyl-2-azabicyclo[2.1.1]hexan-2-yl)-5,7-dihydrofuro[3,4-b]pyridine-3-carboxamide] | 29 nM | >172 | > 5000 nM
4 | COc1cc(NC(=O)c2cc3c(nc2N2CC4C(C2)C4(F)F)COC3)cc2c(C)cc(=O)[nH]c12 (centres unmarked) [Example 5, 2-(6,6-difluoro-3-azabicyclo[3.1.0]hexan-3-yl)-N-(8-methoxy-4-methyl-2-oxo-1H-quinolin-6-yl)-5,7-dihydrofuro[3,4-b]pyridine-3-carboxamide] | 17 nM | 12 | 200 nM
5 | Cc1cc(=O)[nH]c2c3c(c(NC(=O)c4cc5c(nc4N4CCOCC4)COC5)cc12)CCO3 [Example 8, N-(6-methyl-8-oxo-3,9-dihydro-2H-furo[3,2-h]quinolin-4-yl)-2-morpholino-5,7-dihydrofuro[3,4-b]pyridine-3-carboxamide] | 56 nM | 45 | > 2500 nM
6 | COc1c(F)c(NC(=O)c2cc3c(nc2N2CCOCC2)COC3)cc2c(C)cc(=O)[nH]c12 [Example 9, N-(7-fluoro-8-methoxy-4-methyl-2-oxo-1H-quinolin-6-yl)-2-morpholino-5,7-dihydrofuro[3,4-b]pyridine-3-carboxamide] | 440 nM | 17 | 7400 nM
7 | Cc1cc(=O)[nH]c2c3c(c(NC(=O)c4cc5c(nc4N4CCOCC4)COC5)cc12)OCCO3 [Example 10, N-(7-methyl-9-oxo-3,10-dihydro-2H-[1,4]dioxino[2,3-h]quinolin-5-yl)-2-morpholino-5,7-dihydrofuro[3,4-b]pyridine-3-carboxamide] | 43 nM | >232 | > 10000 nM
8 | COc1cc2[nH]c(=O)cc(C)c2cc1NC(=O)c1cc2c(nc1N1CCOCC1)COC2 [Example 14, N-(7-methoxy-4-methyl-2-oxo-1H-quinolin-6-yl)-2-morpholino-5,7-dihydrofuro[3,4-b]pyridine-3-carboxamide] | 26 nM | 15 | 400 nM
9 | COc1cc(NC(=O)c2cc3c(nc2N2CCC(F)(F)C2)COC3)cc2c(C)cc(=O)[nH]c12 [Example 16, 2-(3,3-difluoropyrrolidin-1-yl)-N-(8-methoxy-4-methyl-2-oxo-1H-quinolin-6-yl)-5,7-dihydrofuro[3,4-b]pyridine-3-carboxamide] | – | 43 | –
10 | COc1cc(NC(=O)c2cc3c(nc2N2CCC[C@H]2C)COC3)cc2c(C)cc(=O)[nH]c12 [Example 18, N-(8-methoxy-4-methyl-2-oxo-1H-quinolin-6-yl)-2-[(2R)-2-methylpyrrolidin-1-yl]-5,7-dihydrofuro[3,4-b]pyridine-3-carboxamide] | 12 nM | 17 | 200 nM
11 | COc1cc(NC(=O)c2cc3c(nc2N2CC4CCOC4C2)COC3)cc2c(C)cc(=O)[nH]c12 (centres unmarked) [Example 19, 2-(2,3,3a,4,6,6a-hexahydrofuro[2,3-c]pyrrol-5-yl)-N-(8-methoxy-4-methyl-2-oxo-1H-quinolin-6-yl)-5,7-dihydrofuro[3,4-b]pyridine-3-carboxamide] | 180 nM | 31 | 5600 nM
12 | COc1cc(NC(=O)c2cc3c(nc2N2CC4COCC4C2)COC3)cc2c(C)cc(=O)[nH]c12 (centres unmarked) [Example 20, 2-(1,3,3a,4,6,6a-hexahydrofuro[3,4-c]pyrrol-5-yl)-N-(8-methoxy-4-methyl-2-oxo-1H-quinolin-6-yl)-5,7-dihydrofuro[3,4-b]pyridine-3-carboxamide] | 70 nM | 49 | 3400 nM
13 | COc1cc(NC(=O)c2cc3c(nc2N2C4CCCC2CC4)COC3)cc2c(C)cc(=O)[nH]c12 [Example 21, 2-(8-azabicyclo[3.2.1]octan-8-yl)-N-(8-methoxy-4-methyl-2-oxo-1H-quinolin-6-yl)-5,7-dihydrofuro[3,4-b]pyridine-3-carboxamide] | 6 nM | 233 | 1400 nM
14 | COc1cc(NC(=O)c2cc3c(nc2N2CCC[C@@H]2C)COC3)cc2c(C)cc(=O)[nH]c12 [Example 25, N-(8-methoxy-4-methyl-2-oxo-1H-quinolin-6-yl)-2-[(2S)-2-methylpyrrolidin-1-yl]-5,7-dihydrofuro[3,4-b]pyridine-3-carboxamide] | 150 nM | 30 | 4500 nM

More lines, now with the values ahead:

Row | Kd [1] | Selectivity BRD4(2)/BRD4(1) [1] | Kd [2] | SMILES
15 | – | 24 | – | CCN(CC)c1nc2c(cc1C(=O)Nc1cc(OC)c3[nH]c(=O)cc(C)c3c1)COC2 [Example 27, 2-(diethylamino)-N-(8-methoxy-4-methyl-2-oxo-1H-quinolin-6-yl)-5,7-dihydrofuro[3,4-b]pyridine-3-carboxamide]
16 | 33 nM | 30 | 1000 nM | CCN(c1nc2c(cc1C(=O)Nc1cc(OC)c3[nH]c(=O)cc(C)c3c1)COC2)C(C)C [Example 28, 2-[ethyl(isopropyl)amino]-N-(8-methoxy-4-methyl-2-oxo-1H-quinolin-6-yl)-5,7-dihydrofuro[3,4-b]pyridine-3-carboxamide]
17 | 14 nM | 86 | 1200 nM | COc1cc(NC(=O)c2cc3c(nc2N2CCOCC2)CO[C@@H]3C)cc2c(C)cc(=O)[nH]c12 [Example 30, (5R)—N-(8-methoxy-4-methyl-2-oxo-1H-quinolin-6-yl)-5-methyl-2-morpholino-5,7-dihydrofuro[3,4-b]pyridine-3-carboxamide]
18 | 22 nM | 45 | 1000 nM | COc1cc(NC(=O)c2cc3c(nc2N2CCOCC2)COC3C)cc2c(C)cc(=O)[nH]c12 (centres unmarked) [Example 31, N-(8-methoxy-4-methyl-2-oxo-1H-quinolin-6-yl)-5-methyl-2-morpholino-5,7-dihydrofuro[3,4-b]pyridine-3-carboxamide]
19 | 17 nM | 18 | 300 nM | COc1cc(NC(=O)c2cc3c(nc2N2CCOCC2)CN(C)C3)cc2c(C)cc(=O)[nH]c12 [Example 32, N-(8-methoxy-4-methyl-2-oxo-1H-quinolin-6-yl)-6-methyl-2-morpholino-5,7-dihydropyrrolo[3,4-b]pyridine-3-carboxamide]
20 | 13 nM | 23 | 300 nM | COc1cc(NC(=O)c2cc3c(nc2N2CCOCC2)CN(C2COC2)C3)cc2c(C)cc(=O)[nH]c12 [Example 33, N-(8-methoxy-4-methyl-2-oxo-1H-quinolin-6-yl)-2-morpholino-6-(oxetan-3-yl)-5,7-dihydropyrrolo[3,4-b]pyridine-3-carboxamide]
21 | 25 nM | 32 | 800 nM | CCN1Cc2cc(C(=O)Nc3cc(OC)c4[nH]c(=O)cc(C)c4c3)c(N3CCOCC3)nc2C1 [Example 34, 6-ethyl-N-(8-methoxy-4-methyl-2-oxo-1H-quinolin-6-yl)-2-morpholino-5,7-dihydropyrrolo[3,4-b]pyridine-3-carboxamide]
22 | 20 nM | 30 | 600 nM | COc1cc(NC(=O)c2cc3c(nc2N2CCOCC2)CN(C(C)C)C3)cc2c(C)cc(=O)[nH]c12 [Example 35, 6-isopropyl-N-(8-methoxy-4-methyl-2-oxo-1H-quinolin-6-yl)-2-morpholino-5,7-dihydropyrrolo[3,4-b]pyridine-3-carboxamide]
23 | 11 nM | 14 | 150 nM | COc1cc(NC(=O)c2cc3c(nc2N2CC[C@@H](F)C2)COC3)cc2c(C)cc(=O)[nH]c12 [Example 40, 2-[(3R)-3-fluoropyrrolidin-1-yl]-N-(8-methoxy-4-methyl-2-oxo-1H-quinolin-6-yl)-5,7-dihydrofuro[3,4-b]pyridine-3-carboxamide]
